Assay results as given in the NIST ThermoML archive (doi:10.1016/j.jct.2017.10.012).

Conditions: Liquid, Vibrating tube method

CCCC[N+](C)(C)C.O=S(=O)([N-]S(=O)(=O)C(F)(F)F)C(F)(F)F [butyltrimethylammonium bis(trifluoromethylsulfonyl)imide]
Conditions | mass density [kg/m3]
278.15 K, 100 kPa | 1411.9
278.15 K, 101.33 kPa | 1411.6
278.15 K, 1000 kPa | 1412.6
278.15 K, 10000 kPa | 1419
278.15 K, 20000 kPa | 1425.6
278.15 K, 40000 kPa | 1438.3
278.15 K, 60000 kPa | 1450
278.15 K, 80000 kPa | 1460.7
278.15 K, 100000 kPa | 1470.6
278.15 K, 120000 kPa | 1480.6
279.15 K, 101.33 kPa | 1410.6
280.15 K, 101.33 kPa | 1409.6
281.15 K, 101.33 kPa | 1408.6
282.15 K, 101.33 kPa | 1407.7
283.15 K, 101.33 kPa | 1406.7
284.15 K, 101.33 kPa | 1405.7
285.15 K, 101.33 kPa | 1404.8
286.15 K, 101.33 kPa | 1403.8
287.15 K, 101.33 kPa | 1402.9
288.15 K, 101.33 kPa | 1402
289.15 K, 101.33 kPa | 1401
290.15 K, 101.33 kPa | 1400.1
291.15 K, 101.33 kPa | 1399.2
292.15 K, 101.33 kPa | 1398.3
293.15 K, 101.33 kPa | 1397.4
294.15 K, 101.33 kPa | 1396.5
295.15 K, 101.33 kPa | 1395.6
296.15 K, 101.33 kPa | 1394.7
297.15 K, 101.33 kPa | 1393.8
298.15 K, 100 kPa | 1394
298.15 K, 101.33 kPa | 1392.9
298.15 K, 1000 kPa | 1394.7
298.15 K, 10000 kPa | 1401.2
298.15 K, 20000 kPa | 1408.2
298.15 K, 40000 kPa | 1421.2
298.15 K, 60000 kPa | 1433.1
298.15 K, 80000 kPa | 1444.1
298.15 K, 100000 kPa | 1454.5
298.15 K, 120000 kPa | 1464.3
299.15 K, 101.33 kPa | 1392
300.15 K, 101.33 kPa | 1391.1
301.15 K, 101.33 kPa | 1390.2
302.15 K, 101.33 kPa | 1389.4
303.15 K, 101.33 kPa | 1388.5
304.15 K, 101.33 kPa | 1387.6
305.15 K, 101.33 kPa | 1386.7
306.15 K, 101.33 kPa | 1385.8
307.15 K, 101.33 kPa | 1385
308.15 K, 101.33 kPa | 1384.1
309.15 K, 101.33 kPa | 1383.2
310.15 K, 101.33 kPa | 1382.4
311.15 K, 101.33 kPa | 1381.5
312.15 K, 101.33 kPa | 1380.6
313.15 K, 100 kPa | 1380.9
313.15 K, 101.33 kPa | 1379.7
313.15 K, 1000 kPa | 1381.6
313.15 K, 10000 kPa | 1388.4
313.15 K, 20000 kPa | 1395.7
313.15 K, 40000 kPa | 1409.2
313.15 K, 60000 kPa | 1421.7
313.15 K, 80000 kPa | 1433
313.15 K, 100000 kPa | 1443.7
313.15 K, 120000 kPa | 1453.7
314.15 K, 101.33 kPa | 1378.9
315.15 K, 101.33 kPa | 1378
316.15 K, 101.33 kPa | 1377.1
317.15 K, 101.33 kPa | 1376.3
318.15 K, 101.33 kPa | 1375.4
319.15 K, 101.33 kPa | 1374.5
320.15 K, 101.33 kPa | 1373.7
321.15 K, 101.33 kPa | 1372.8
322.15 K, 101.33 kPa | 1372
323.15 K, 101.33 kPa | 1371.1
324.15 K, 101.33 kPa | 1370.3
325.15 K, 101.33 kPa | 1369.4
326.15 K, 101.33 kPa | 1368.6
327.15 K, 101.33 kPa | 1367.7
328.15 K, 101.33 kPa | 1366.8
329.15 K, 101.33 kPa | 1366
330.15 K, 101.33 kPa | 1365.1
331.15 K, 101.33 kPa | 1364.3
332.15 K, 101.33 kPa | 1363.4
333.15 K, 100 kPa | 1363.4
333.15 K, 101.33 kPa | 1362.6
333.15 K, 1000 kPa | 1364.2
333.15 K, 10000 kPa | 1371.6
333.15 K, 20000 kPa | 1379.3
333.15 K, 40000 kPa | 1393.4
333.15 K, 60000 kPa | 1406.4
333.15 K, 80000 kPa | 1418.3
333.15 K, 100000 kPa | 1429.5
333.15 K, 120000 kPa | 1439.8
334.15 K, 101.33 kPa | 1361.7
335.15 K, 101.33 kPa | 1360.9
336.15 K, 101.33 kPa | 1360
337.15 K, 101.33 kPa | 1359.2
338.15 K, 101.33 kPa | 1358.3
339.15 K, 101.33 kPa | 1357.5
340.15 K, 101.33 kPa | 1356.7
341.15 K, 101.33 kPa | 1355.9
342.15 K, 101.33 kPa | 1355
343.15 K, 101.33 kPa | 1354.1
344.15 K, 101.33 kPa | 1353.3
345.15 K, 101.33 kPa | 1352.6
346.15 K, 101.33 kPa | 1351.6
347.15 K, 101.33 kPa | 1350.8
348.15 K, 100 kPa | 1350.3
348.15 K, 101.33 kPa | 1349.9
348.15 K, 1000 kPa | 1351
348.15 K, 10000 kPa | 1358.7
348.15 K, 20000 kPa | 1366.7
348.15 K, 40000 kPa | 1381.5
348.15 K, 60000 kPa | 1394.9
348.15 K, 80000 kPa | 1407.1
348.15 K, 100000 kPa | 1418.6
348.15 K, 120000 kPa | 1429.3
349.15 K, 101.33 kPa | 1349.2
350.15 K, 101.33 kPa | 1348.3
351.15 K, 101.33 kPa | 1347.4
352.15 K, 101.33 kPa | 1346.6
353.15 K, 101.33 kPa | 1345.7
354.15 K, 101.33 kPa | 1344.9
355.15 K, 101.33 kPa | 1344
356.15 K, 101.33 kPa | 1343.2
357.15 K, 101.33 kPa | 1342.3
358.15 K, 101.33 kPa | 1341.5
359.15 K, 101.33 kPa | 1340.6
360.15 K, 101.33 kPa | 1339.8
361.15 K, 101.33 kPa | 1338.9
362.15 K, 101.33 kPa | 1338
363.15 K, 101.33 kPa | 1337
364.15 K, 101.33 kPa | 1336.1
365.15 K, 101.33 kPa | 1335.2
366.15 K, 101.33 kPa | 1334.3
367.15 K, 101.33 kPa | 1333.4
368.15 K, 101.33 kPa | 1332.5
369.15 K, 101.33 kPa | 1331.7
370.15 K, 101.33 kPa | 1330.9
371.15 K, 101.33 kPa | 1330.1
372.15 K, 101.33 kPa | 1329.2
373.15 K, 100 kPa | 1329.5
373.15 K, 101.33 kPa | 1328.4
373.15 K, 1000 kPa | 1329.7
373.15 K, 10000 kPa | 1338
373.15 K, 20000 kPa | 1346.6
373.15 K, 40000 kPa | 1362.3
373.15 K, 60000 kPa | 1376.5
373.15 K, 80000 kPa | 1389.5
373.15 K, 100000 kPa | 1401.5
373.15 K, 120000 kPa | 1412.7
398.15 K, 100 kPa | 1309.1
398.15 K, 1000 kPa | 1308.9
398.15 K, 10000 kPa | 1317.8
398.15 K, 20000 kPa | 1327
398.15 K, 40000 kPa | 1343.7
398.15 K, 60000 kPa | 1358.6
398.15 K, 80000 kPa | 1372.3
398.15 K, 100000 kPa | 1384.8
398.15 K, 120000 kPa | 1396.6
